What was measured:
[1] = biological target: Kallikrein-1 (Homo sapiens, UniProt P06870); assay: (§1) Determination of the IC50 for KLK1: KLK1 inhibitory activity in vitro was determined using standard published methods (see e.g. Johansen et al., Int. J. Tiss. Reac. 1986, 8, 185; Shori et al., Biochem. Pharmacol., 1992, 43, 1209; Sturzebecher et al., Biol. Chem. Hoppe-Seyler, 1992, 373, 1025). Human KLK1 (Callbiochem) was incubated at 25° C. with the fluorogenic substrate H-DVal-Leu-Arg-AFC and various concentrations of the test compound. Residual enzyme activity (initial rate of reaction) was determined by measuring the change in optical absorbance at 410 nm and the IC50 value for the test compound was determined.
Sequence of Kallikrein-1 (P06870 whole entry): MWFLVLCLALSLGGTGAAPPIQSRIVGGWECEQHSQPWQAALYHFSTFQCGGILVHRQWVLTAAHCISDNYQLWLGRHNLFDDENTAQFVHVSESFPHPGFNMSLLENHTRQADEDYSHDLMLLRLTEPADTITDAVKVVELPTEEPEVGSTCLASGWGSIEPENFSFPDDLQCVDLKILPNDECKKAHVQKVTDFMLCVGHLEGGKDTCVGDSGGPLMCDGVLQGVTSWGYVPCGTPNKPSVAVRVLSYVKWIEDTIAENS

[2] = biological target: Plasma kallikrein (Homo sapiens, UniProt P03952); assay: as §1, with “Plasma Kallikrein: Plasma kallikrein” for “KLK1: KLK1”, “plasma kallikrein (Protogen)” for “KLK1 (Callbiochem)”, “H-DPro-Phe-Arg-AFC” for “H-DVal-Leu-Arg-AFC”
Sequence of Plasma kallikrein (P03952 20-390 limits assumed): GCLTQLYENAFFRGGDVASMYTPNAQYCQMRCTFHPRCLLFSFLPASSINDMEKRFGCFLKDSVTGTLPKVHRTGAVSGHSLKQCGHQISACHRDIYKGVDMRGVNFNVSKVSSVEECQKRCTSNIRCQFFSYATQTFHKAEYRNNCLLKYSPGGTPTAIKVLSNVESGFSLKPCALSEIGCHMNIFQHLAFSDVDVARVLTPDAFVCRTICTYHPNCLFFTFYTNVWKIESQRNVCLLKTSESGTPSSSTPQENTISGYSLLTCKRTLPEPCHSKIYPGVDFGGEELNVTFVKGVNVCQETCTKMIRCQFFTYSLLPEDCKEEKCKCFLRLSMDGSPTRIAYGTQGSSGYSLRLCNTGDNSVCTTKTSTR
Sequence of Plasma kallikrein (P03952 391-638 limits assumed): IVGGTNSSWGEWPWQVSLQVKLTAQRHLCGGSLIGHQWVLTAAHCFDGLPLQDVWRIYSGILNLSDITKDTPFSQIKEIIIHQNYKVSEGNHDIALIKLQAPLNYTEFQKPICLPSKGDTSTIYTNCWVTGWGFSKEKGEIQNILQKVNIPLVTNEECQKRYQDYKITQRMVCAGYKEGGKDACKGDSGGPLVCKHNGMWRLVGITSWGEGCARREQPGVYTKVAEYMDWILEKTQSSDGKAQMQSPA

[3] = biological target: Coagulation factor XI (Homo sapiens, UniProt P03951); assay: Determination of the % Inhibition for FXIa: FXIa inhibitory activity in vitro was determined using standard published methods (see e.g. Johansen et al., Int. J. Tiss. Reac. 1986, 8, 185; Shori et al., Biochem. Pharmacol., 1992, 43, 1209; Sturzebecher et al., Biol. Chem. Hoppe-Seyler, 1992, 373, 1025). Human FXIa (Enzyme Research Laboratories) was incubated at 25° C. with the fluorogenic substrate Z-Gly-Pro-Arg-AFC and 40 μM of the test compound (or alternatively at various concentrations of the test compound in order to determine IC50). Residual enzyme activity (initial rate of reaction) was determined by measuring the change in optical absorbance at 410 nm and the IC50 value for the test compound was determined.
Sequence of Coagulation factor XI (P03951 19-387 limits assumed): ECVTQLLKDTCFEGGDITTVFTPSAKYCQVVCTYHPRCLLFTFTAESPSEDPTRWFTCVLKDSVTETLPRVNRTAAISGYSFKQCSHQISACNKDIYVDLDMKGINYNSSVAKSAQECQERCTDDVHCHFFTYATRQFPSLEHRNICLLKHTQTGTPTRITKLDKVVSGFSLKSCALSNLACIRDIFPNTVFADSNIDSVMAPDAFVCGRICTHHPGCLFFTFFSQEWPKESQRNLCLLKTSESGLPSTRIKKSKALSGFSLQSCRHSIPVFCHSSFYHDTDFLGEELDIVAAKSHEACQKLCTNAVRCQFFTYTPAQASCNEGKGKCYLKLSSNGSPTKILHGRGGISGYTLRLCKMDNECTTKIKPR
Sequence of Coagulation factor XI (P03951 388-625 limits assumed): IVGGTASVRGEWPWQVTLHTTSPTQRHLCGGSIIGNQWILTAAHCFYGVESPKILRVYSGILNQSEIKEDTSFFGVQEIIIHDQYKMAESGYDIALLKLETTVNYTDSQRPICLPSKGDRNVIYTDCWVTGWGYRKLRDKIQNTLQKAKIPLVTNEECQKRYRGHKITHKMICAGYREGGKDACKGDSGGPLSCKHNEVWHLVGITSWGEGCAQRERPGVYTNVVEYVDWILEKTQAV

Row | IC50 [1] | IC50 [2] | IC50 [3] | Compound
1 | > 40 µM | < 10 nM | > 40000 nM | COCc1nn(Cc2ccc3c(c2)CN(C(C)C)C3)cc1C(=O)NCc1c(-n2cc(C)nn2)ccc(OC)c1F
2 | > 40 µM | < 10 nM | 1840 nM | COCc1nn(Cc2cnc(N3CCCC3)nc2)cc1C(=O)NCc1c(-n2cc(C)nn2)ccc(OC)c1F
3 | > 40 µM | < 10 nM | 970 nM | COCc1nn(Cc2cnc(N3CCCC3)nc2)cc1C(=O)NCc1c(-n2ccnn2)ccc(OC)c1F
